According to US20200121801A1, “DRUG DELIVERY CONJUGATES CONTAINING UNNATURAL AMINO ACIDS AND METHODS FOR USING” (priority 2012, published 2020):
“Also recorded” adds a separate entry of the source. Marks after values point to notes of the source that are not given here.

Key:
[1] = molecular target: T1, folate receptors (FRs) on KB cells (Homo sapiens, UniProt P15328); test: Relative affinity assay (3H-folic acid competition) on KB cells; type: binding; settings: folic acid = 1; in 10% serum/FDRPMI
T1 construct: FR-positive KB cells are heavily seeded into 24-well cell culture plates; endogenous in cells; host or cells: KB cells
T1 sequence (P15328 25-234): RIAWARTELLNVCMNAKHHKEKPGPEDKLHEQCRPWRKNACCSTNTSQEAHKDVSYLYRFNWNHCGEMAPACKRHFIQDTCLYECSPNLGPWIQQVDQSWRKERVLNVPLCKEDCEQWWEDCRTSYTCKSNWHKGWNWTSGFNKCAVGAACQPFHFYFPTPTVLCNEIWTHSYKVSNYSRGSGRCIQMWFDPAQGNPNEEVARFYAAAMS
Description: METHOD. Relative Affinity Assay. The affinity for folate receptors (FRs) relative to folate is determined according to a previously described method (Westerhof, G. R., J. H. Schornagel, et al. (1995) Mol. Pharm. 48: 459-471) with slight modification. Briefly, FR-positive KB cells are heavily seeded into 24-well cell culture plates and allowed to adhere to the plastic for 18 h. Spent incubation media is replaced in designated wells with folate-free RPMI (FFRPMI) supplemented with 100 nM ^3H-folic acid in the absence and presence of increasing concentrations of test article or folic acid. Cells are incubated for 60 min at 37° C. and then rinsed 3 times with PBS, pH 7.4. Five hundred microliters of 1% SDS in PBS, pH 7.4, is added per well. Cell lysates are then collected and added to individual vials containing 5 mL of scintillation cocktail, and then counted for radioactivity. Negative control tubes contain only the ^3H-folic acid in FFRPMI (no competitor). Positive control tubes contain a final concentration of 1 mM folic acid, and CPMs measured in these samples (representing non-specific binding of label) are subtracted from all samples.

KB cells (FR+) = type: cell-based, Human
Description: METHOD. Inhibition of Cellular DNA Synthesis. The compounds described herein are evaluated using an in vitro cytotoxicity assay that predicts the ability of the drug to inhibit the growth of folate receptor-positive cells, such as KB cells, RAW264.7 macrophages, and the like. It is to be understood that the choice of cell type can made on the basis of the susceptibility of those selected cells to the drug that forms the conjugate. The test compounds are comprised of folate linked to a respective chemotherapeutic drug, as prepared according to the processes described herein. The test cells are exposed to varying concentrations of folate-drug conjugate, and also in the absence or presence of at least a 100-fold excess of folic acid to assess activity as being specific to folate receptor mediation.
EXAMPLE. Conjugates of cytotoxic drugs described herein are active against KB cells. The activity is mediated by the folate receptor as indicated by competition experiments using co-administered folic acid. KB cells are exposed for up to 7 h at 37° C. to the indicated concentrations of folate-drug conjugate in the absence or presence of at least a 100-fold excess of folic acid. The cells are then rinsed once with fresh culture medium and incubated in fresh culture medium for 72 hours at 37° C. Cell viability was assessed using a ^3H-thymidine incorporation assay.
(§1) METHOD. In vitro activity against various cancer cell lines. IC50 values are generated for various cell lines. Cells are heavily seeded in 24-well Falcon plates and allowed to form nearly confluent monolayers overnight. Thirty minutes prior to the addition of the test compound, spent medium is aspirated from all wells and replaced with fresh folate-deficient RPMI medium (FFRPMI). A subset of wells are designated to receive media containing 100 μM folic acid. The cells in the designated wells are used to determine the targeting specificity. Without being bound by theory it is believed herein that the cytotoxic activity produced by test compounds in the presence of excess folic acid, i.e. where there is competition for FR binding, corresponds to the portion of the total activity that is unrelated to FR-specific delivery. Following one rinse with 1 mL of fresh FFRPMI containing 10% heat-inactivated fetal calf serum, each well receives 1 mL of medium containing increasing concentrations of test compound (4 wells per sample) in the presence or absence of 100 μM free folic acid as indicated. Treated cells are pulsed for 2 h at 37° C., rinsed 4 times with 0.5 mL of media, and then chased in 1 mL of fresh medium up to 70 h. Spent medium is aspirated from all wells and replaced with fresh medium containing 5 μCi/mL ^3H-thymidine. Following a further 2 h 37° C. incubation, cells are washed 3 times with 0.5 mL of PBS and then treated with 0.5 mL of ice-cold 5% trichloroacetic acid per well. After 15 min, the trichloroacetic acid is aspirated and the cell material solubilized by the addition of 0.5 mL of 0.25 N sodium hydroxide for 15 min. A 450 μL aliquot of each solubilized sample is transferred to a scintillation vial containing 3 mL of Ecolume scintillation cocktail and then counted in a liquid scintillation counter. Final results are expressed as the percentage of ^3H-thymidine incorporation relative to untreated controls.

NC1/ADR-RES-Cl2 (FR+) = test: In vitro activity, 3H-thymidine incorporation, NC1/ADR-RES-Cl2; type: cell-based, Human
Description: as §1, with “Treated cells are pulsed for 2 h at 37° C., rinsed 4 times with 0.5 mL of media, and then chased in 1 mL of fresh medium up to 70 h. Spent medium is aspirated from all wells and replaced with fresh medium containing 5 μCi/mL ^3H-thymidine. Following a further 2 h 37° C. incubation, cells are washed 3 times with 0.5 mL of PBS and then treated with 0.5 mL of ice-cold 5% trichloroacetic acid per well. After 15 min, the trichloroacetic acid is aspirated and the cell material solubilized by the addition of 0.5 mL of 0.25 N sodium hydroxide for 15 min.” left out

IGROV1 (FR+) = test: In vitro activity, 3H-thymidine incorporation, IGROV1; type: cell-based, Human
Description: as §1, with “Treated cells are pulsed for 2 h at 37° C., rinsed 4 times with 0.5 mL of media, and then chased in 1 mL of fresh medium up to 70 h. Spent medium is aspirated from all wells and replaced with fresh medium containing 5 μCi/mL ^3H-thymidine. Following a further 2 h 37° C. incubation, cells are washed 3 times with 0.5 mL of PBS and then treated with 0.5 mL of ice-cold 5% trichloroacetic acid per well. After 15 min, the trichloroacetic acid is aspirated and the cell material solubilized by the addition of 0.5 mL of 0.25 N sodium hydroxide for 15 min.” left out

MDA-MB-231 (FR+) = test: In vitro activity, 3H-thymidine incorporation, MDA-MB-231; type: cell-based, Human
Description: as §1, with “Treated cells are pulsed for 2 h at 37° C., rinsed 4 times with 0.5 mL of media, and then chased in 1 mL of fresh medium up to 70 h. Spent medium is aspirated from all wells and replaced with fresh medium containing 5 μCi/mL ^3H-thymidine. Following a further 2 h 37° C. incubation, cells are washed 3 times with 0.5 mL of PBS and then treated with 0.5 mL of ice-cold 5% trichloroacetic acid per well. After 15 min, the trichloroacetic acid is aspirated and the cell material solubilized by the addition of 0.5 mL of 0.25 N sodium hydroxide for 15 min.” left out

A549 (FR-) = test: In vitro activity, 3H-thymidine incorporation, A549; type: cell-based, Human; settings: evaluated from 0.1-100 nM
Description: as §1, with “Treated cells are pulsed for 2 h at 37° C., rinsed 4 times with 0.5 mL of media, and then chased in 1 mL of fresh medium up to 70 h. Spent medium is aspirated from all wells and replaced with fresh medium containing 5 μCi/mL ^3H-thymidine. Following a further 2 h 37° C. incubation, cells are washed 3 times with 0.5 mL of PBS and then treated with 0.5 mL of ice-cold 5% trichloroacetic acid per well. After 15 min, the trichloroacetic acid is aspirated and the cell material solubilized by the addition of 0.5 mL of 0.25 N sodium hydroxide for 15 min.” left out

H23 (FR-) = test: In vitro activity, 3H-thymidine incorporation, H23; type: cell-based, Human; settings: evaluated from 0.1-100 nM
Description: as §1, with “Treated cells are pulsed for 2 h at 37° C., rinsed 4 times with 0.5 mL of media, and then chased in 1 mL of fresh medium up to 70 h. Spent medium is aspirated from all wells and replaced with fresh medium containing 5 μCi/mL ^3H-thymidine. Following a further 2 h 37° C. incubation, cells are washed 3 times with 0.5 mL of PBS and then treated with 0.5 mL of ice-cold 5% trichloroacetic acid per well. After 15 min, the trichloroacetic acid is aspirated and the cell material solubilized by the addition of 0.5 mL of 0.25 N sodium hydroxide for 15 min.” left out

HepG2 (FR-) = test: In vitro activity, 3H-thymidine incorporation, HepG2; type: cell-based, Human; settings: evaluated from 0.1-100 nM
Description: as §1, with “Treated cells are pulsed for 2 h at 37° C., rinsed 4 times with 0.5 mL of media, and then chased in 1 mL of fresh medium up to 70 h. Spent medium is aspirated from all wells and replaced with fresh medium containing 5 μCi/mL ^3H-thymidine. Following a further 2 h 37° C. incubation, cells are washed 3 times with 0.5 mL of PBS and then treated with 0.5 mL of ice-cold 5% trichloroacetic acid per well. After 15 min, the trichloroacetic acid is aspirated and the cell material solubilized by the addition of 0.5 mL of 0.25 N sodium hydroxide for 15 min.” left out

AN3CA (FR-) = test: In vitro activity, 3H-thymidine incorporation, AN3CA; type: cell-based, Human; settings: evaluated from 0.1-100 nM
Description: as §1, with “Treated cells are pulsed for 2 h at 37° C., rinsed 4 times with 0.5 mL of media, and then chased in 1 mL of fresh medium up to 70 h. Spent medium is aspirated from all wells and replaced with fresh medium containing 5 μCi/mL ^3H-thymidine. Following a further 2 h 37° C. incubation, cells are washed 3 times with 0.5 mL of PBS and then treated with 0.5 mL of ice-cold 5% trichloroacetic acid per well. After 15 min, the trichloroacetic acid is aspirated and the cell material solubilized by the addition of 0.5 mL of 0.25 N sodium hydroxide for 15 min.” left out

KB tumors = test: Inhibition of tumor growth, s.c. KB tumors in nu/nu mice; type: in vivo; design: key to In vivo activity (e): CR = complete response, where tumor volume, as defined herein, during the observation period was zero for all test animals in the group; settings: for CR: 2 weeks
Description: METHOD. Inhibition of Tumor Growth in Mice. […] For tumor cell inoculation, 1×10^6 M109 cells (a syngeneic lung carcinoma) in Balb/c strain, or 1×10^6 KB cells in nu/nu strain, in 100 μL are injected in the subcutis of the dorsal medial area (right axilla).
METHOD. Toxicity as Measured by Weight Loss. The percentage weight change of the test animals is determined on selected days post-tumor inoculation (PTI), and during dosing. The results are graphed.

MDA-MB-231 tumors = test: TNBC tumor assay, s.c. MDA-MB-231 xenografts; type: in vivo, nu/nu mice; settings: 2 μmol/kg i.v. TIW, 2 weeks
Source text: METHOD. TNBC Tumor Assay. Triple negative breast cancer (TNBC) is a subtype characterized by lack of gene expression for estrogen, progesterone and Her2/neu. TNBC is difficult to treat, and the resulting death rate in patients is reportedly disproportionately higher than for any other subtype of breast cancer. A TNBC xenograft model was generated in an analogous way to the KB and M109 models described herein by implanting MDA-MB-231 breast cancer cells in nu/nu mice. Dosing is initiated when the s.c. tumors have an average volume between 110-150 (generally 130) mm^3 (t0), typically 17 days post tumor inoculation (PTI).
EXAMPLE. […] Without being bound by theory, it is believed herein that the test animals were cured of the triple negative breast cancer.

[2] = test system: KB-CR2000 (cisplatin resistant) tumors; test: Cisplatin-resistant KB-CR2000 tumor model; type: in vivo, mice
[3] = Maximum tolerated dose (MTD); design: species or system Sprague-Dawley rats; settings: rat, in vivo
Description: EXAMPLE. Maximum tolerated dose (MTD). […] Test compounds are administered by i.v., BIW, 2 wks in female Sprague-Dawley rats. Comparator compound EC0531 has a MTD of 0.33 μmol/kg, while EC1456 has a MTD of at least 0.51 μmol/kg, a […], as shown in FIG. 20. Histopathologic changes were not observed with doses of EC1456 at or below the MTD.

CCCC(=O)OCN(C(=O)[C@@H](NC(=O)[C@H]1CCCCN1C)C(C)CC)C(C[C@@H](OC(C)=O)c1nc(C(=O)N[C@@H](Cc2ccc(O)cc2)C[C@H](C)C(=O)NNC(=O)OCCSSC[C@@H](NC(=O)[C@H](CCC(=O)NC[C@H](O)[C@@H](O)[C@H](O)[C@H](O)CO)NC(=O)[C@@H](CCC(=O)O)NC(=O)[C@H](CCC(=O)NC[C@H](O)[C@@H](O)[C@H](O)[C@H](O)CO)NC(=O)[C@@H](CCC(=O)O)NC(=O)[C@H](CCC(=O)NC[C@H](O)[C@@H](O)[C@H](O)[C@H](O)CO)NC(=O)CC[C@@H](NC(=O)c2ccc(NCc3cnc4nc(N)[nH]c(=O)c4n3)cc2)C(=O)O)C(=O)O)cs1)C(C)C (stereo partly drawn) [EC1456]
Relative Affinity (a) compared to folic acid [1]: 0.27 | improvement in specificity compared to comparator EC0531 (KB cells (FR+)): 4 fold | In vitro specificity (fold) (d) (KB cells (FR+); IC50 competed group vs non-competed group): 944 fold | specificity for the folate receptor by folic acid competition (KB cells (FR+); IC50 competed vs non-competed group): ca. 1000 fold | Competable up to 100 nM (KB cells (FR+); KB): Yes | Competable up to 100 nM (NC1/ADR-RES-Cl2 (FR+)): Yes | Competable up to 100 nM (IGROV1 (FR+)): Yes | Competable up to 100 nM (MDA-MB-231 (FR+)): Yes | Activity (IC50) (A549 (FR-)): Inactive (a) | Activity (IC50) (H23 (FR-)): Inactive | Activity (IC50) (HepG2 (FR-)): Inactive | Activity (IC50) (AN3CA (FR-)): Inactive | Toxicity: Avg. Weight Loss (KB tumors; 0.5 μmol/kg, TIW, 3 weeks, untreated control 2.4%): <5%* | whole animal toxicity (body weight) (KB tumors; 1 μmol/kg TIW, 2 wk): did not result in any observable whole animal toxicity; also recorded: does not show any evidence of whole animal toxicity | complete response (test animals) (KB tumors; 1 μmol/kg i.v. TIW, 2 wk): 4/4 | CR (KB tumors; 1.0 μmol/kg, TIW): 60% | CR (KB tumors; 2.0 μmol/kg, TIW): 100% | activity competable with excess EC0923 (KB tumors; EC0923 50 or 100 μmol/kg co-dosed): competable | In vivo activity (e) (KB tumors; subcutaneous KB tumor in nu/nu mice): CR | weight loss / gross whole animal toxicity (MDA-MB-231 tumors): did not cause gross whole animal toxicity; also recorded: not accompanied by significant weight loss | complete responses (test animals) (MDA-MB-231 tumors; observation nearly 135 days): 4 of 5 | CRs (test animals) ([2]; 2 μmol/kg i.v. TIW, 2 weeks): 5/5 | regrowth of the tumor (test animals) ([2]; 2 μmol/kg i.v. TIW, 2 weeks): 1/5 | weight loss / host animal toxicity ([2]; 2 μmol/kg i.v. TIW, 2 weeks): did not exhibit significant host animal toxicity; also recorded: did not cause any weight loss | test animals cured (no regrowth) ([2]; nearly 70 day observation period): 4/5 | improvement in MTD over EC0531 [3]: 65% | MTD at 2 weeks ([3]; iv, BIW, 2 wks, female Sprague-Dawley rats): ≥ 0.51 µmol/kg
